Reference: US9423396B2, “Bodipy structure fluorescence probes for diverse biological applications” (National University of Singapore, priority 2011, dated 2016)

Assay: Spectroscopic measurements (absorption, emission, quantum yield, extinction coefficient)
Format: physicochemical
[1] = BDNCA library, difference emission minus absorption
[2] = BDNCA library, extinction coefficient; in M-1 cm-1 (unit assumed)
[3] = BDNCA library, fluorescence emission
[4] = absorption maximum, BDNCA library
[5] = difference of emission and absorption maxima
[6] = extinction coefficient, BDNCA library; in M-1 cm-1 (unit assumed)
[7] = fluorescence emission maximum, BDNCA library

Row | Compound | Qunt. Yield (BDNCA library) | Abs (BDNCA library, absorption) | Flu-Abs [1] | ε [2] | Flu [3] | Abs [4] | Flu-Abs [5] | ε [6] | Flu [7] | Qunt. Yield (quantum yield, BDNCA library)
1 | CC1=CC(/C=C/c2ccc(OCc3ccccc3)cc2)=[N+]2C1=C(c1ccc(NC(=O)CCl)cc1)c1cccn1[B-]2(F)F [BDNCA-90] | 0.04 | 563 nm | 30 | 20,046 | 593 |  |  |  |  | 
2 | COc1ccc(Br)cc1/C=C/c1cc(C)c2n1[B-](F)(F)[N+]1=CC=CC1=C2c1ccc(NC(=O)CCl)cc1 [BDNCA-54] | 0.07 | 562 nm | 19 | 38,169 | 581 |  |  |  |  | 
3 | COc1ccc(/C=C/C2=[N+]3C(=C(c4ccc(NC(=O)CCl)cc4)c4cccn4[B-]3(F)F)C(C)=C2)cc1Cl [BDNCA-274] | 0.15 | 563 nm | 27 | 71,670 | 590 |  |  |  |  | 
4 | Cc1cc(/C=C/c2ccccc2C(=O)O)n2c1C(c1ccc(NC(=O)CCl)cc1)=C1C=CC=[N+]1[B-]2(F)F [BDNCA-191] | 0.06 | 556 nm | 18 | 24,714 | 574 |  |  |  |  | 
5 | CC1=CC(/C=C/c2ccc(C(C)(C)C)cc2)=[N+]2C1=C(c1ccc(NC(=O)CCl)cc1)c1cccn1[B-]2(F)F [BDNCA-177] | 0.15 | 558 nm | 23 | 73,867 | 581 |  |  |  |  | 
6 | COc1cc(Cl)cc(/C=C/C2=[N+]3C(=C(c4ccc(NC(=O)CCl)cc4)c4cccn4[B-]3(F)F)C(C)=C2)c1O [BDNCA-275] | 0.01 | 563 nm | 22 | 60,686 | 585 |  |  |  |  | 
7 | Cc1cc(/C=C/c2ccc(CO)o2)n2c1C(c1ccc(NC(=O)CCl)cc1)=C1C=CC=[N+]1[B-]2(F)F [BDNCA-238] | 0.05 | 575 nm | 33 | 40,366 | 608 |  |  |  |  | 
8 | COc1ccc2ccccc2c1/C=C/C1=[N+]2C(=C(c3ccc(NC(=O)CCl)cc3)c3cccn3[B-]2(F)F)C(C)=C1 [BDNCA-61] | 0.08 | 581 nm | 46 | 33,776 | 627 |  |  |  |  | 
9 | Cc1cc(/C=C/c2ccc(N(C)CCO)cc2)n2c1C(c1ccc(NC(=O)CCl)cc1)=C1C=CC=[N+]1[B-]2(F)F [BDNCA-91] | weak | 559 nm |  | 34,050 | weak |  |  |  |  | 
10 | COc1ccc(/C=C/c2cc(C)c3n2[B-](F)(F)[N+]2=CC=CC2=C3c2ccc(NC(=O)CCl)cc2)c(OC)c1 [BDNCA-206] | 0.13 | 574 nm | 44 | 44,485 | 618 |  |  |  |  | 
11 | CC1=CC(/C=C/c2cc(Cl)cc(Cl)c2O)=[N+]2C1=C(c1ccc(NC(=O)CCl)cc1)c1cccn1[B-]2(F)F [BDNCA-57] | 0.02 | 561 nm | 16 | 23,066 | 577 |  |  |  |  | 
12 | COc1cc(F)c(/C=C/c2cc(C)c3n2[B-](F)(F)[N+]2=CC=CC2=C3c2ccc(NC(=O)CCl)cc2)cc1OC [BDNCA-305] | 0.22 | 568 nm | 38 | 153,227 | 606 |  |  |  |  | 
13 | CCOc1ccc(/C=C/C2=[N+]3C(=C(c4ccc(NC(=O)CCl)cc4)c4cccn4[B-]3(F)F)C(C)=C2)cc1OCC [BDNCA-53] | 0.06 | 570 nm | 51 | 31,579 | 621 |  |  |  |  | 
14 | COc1cc(OC)c(OC)cc1/C=C/C1=[N+]2C(=C(c3ccc(NC(=O)CCl)cc3)c3cccn3[B-]2(F)F)C(C)=C1 [BDNCA-144] | weak | 585 nm |  | 62,609 | weak |  |  |  |  | 
15 | COC(=O)c1ccc(/C=C/C2=[N+]3C(=C(c4ccc(NC(=O)CCl)cc4)c4cccn4[B-]3(F)F)C(C)=C2)cc1 [BDNCA-219] | 0.16 | 560 nm | 21 | 73,043 | 581 |  |  |  |  | 
16 | CC1=CC(/C=C/c2cccc(Oc3ccccc3)c2)=[N+]2C1=C(c1ccc(NC(=O)CCl)cc1)c1cccn1[B-]2(F)F [BDNCA-20] | 0.11 | 556 nm | 20 | 51,625 | 576 |  |  |  |  | 
17 | COc1ccc([N+](=O)[O-])cc1/C=C/C1=[N+]2C(=C(c3ccc(NC(=O)CCl)cc3)c3cccn3[B-]2(F)F)C(C)=C1 [BDNCA-250] | 0.12 | 559 nm | 22 | 53,547 | 581 |  |  |  |  | 
18 | Cc1cc(/C=C/c2cc(F)ccc2O)n2c1C(c1ccc(NC(=O)CCl)cc1)=C1C=CC=[N+]1[B-]2(F)F [BDNCA-318] |  |  |  |  |  | 564 nm | 25 | 18,398 | 589 | 0.02
19 | CCCc1ccc(/C=C/C2=[N+]3C(=C(c4ccc(NC(=O)CCl)cc4)c4cccn4[B-]3(F)F)C(C)=C2)cc1 [BDNCA-77] | 0.09 | 559 nm | 22 | 45,034 | 581 |  |  |  |  | 

Row | Compound | Qunt. Yield (BDNCA library) | Abs (BDNCA library, absorption) | Flu-Abs [1] | ε [2] | Flu [3] | Abs [4] | Flu-Abs [5] | ε [6] | Flu [7] | Qunt. Yield (quantum yield, BDNCA library)
20 | CC1=CC(/C=C/c2cc(C)c(C)cc2C)=[N+]2C1=C(c1ccc(NC(=O)CCl)cc1)c1cccn1[B-]2(F)F [BDNCA-343] |  |  |  |  |  | 562 nm | 26 | 28,284 | 588 | 0.06
21 | CC1=CC(/C=C/c2ccc(C#N)cc2)=[N+]2C1=C(c1ccc(NC(=O)CCl)cc1)c1cccn1[B-]2(F)F [BDNCA-15] | 0.13 | 560 nm | 18 | 49,977 | 578 |  |  |  |  | 
22 | CC1=CC(/C=C/c2ccc(-c3ccccn3)cc2)=[N+]2C1=C(c1ccc(NC(=O)CCl)cc1)c1cccn1[B-]2(F)F [BDNCA-88] | 0.11 | 566 nm | 18 | 27,185 | 584 |  |  |  |  | 
23 | CC1=CC(/C=C/c2cccc(OC(F)(F)C(F)F)c2)=[N+]2C1=C(c1ccc(NC(=O)CCl)cc1)c1cccn1[B-]2(F)F [BDNCA-345] |  |  |  |  |  | 621 nm |  | 12,082 | weak | weak
24 | COc1ccc(Oc2cccc(/C=C/C3=[N+]4C(=C(c5ccc(NC(=O)CCl)cc5)c5cccn5[B-]4(F)F)C(C)=C3)c2)cc1 [BDNCA-42] | 0.08 | 556 nm | 21 | 54,645 | 577 |  |  |  |  | 
25 | COc1cc(/C=C/C2=[N+]3C(=C(c4ccc(NC(=O)CCl)cc4)c4cccn4[B-]3(F)F)C(C)=C2)cc(OC)c1OC(C)=O [BDNCA-92] | 0.01 | 555 nm | 24 | 15,652 | 579 |  |  |  |  | 
26 | COc1ccc(/C=C/C2=[N+]3C(=C(c4ccc(NC(=O)CCl)cc4)c4cccn4[B-]3(F)F)C(C)=C2)cc1OCc1ccccc1 [BDNCA-7] | 0.19 | 570 nm | 46 | 87,872 | 616 |  |  |  |  | 
27 | CC1=CC(/C=C/c2ccccc2)=[N+]2C1=C(c1ccc(NC(=O)CCl)cc1)c1cccn1[B-]2(F)F [BDNCA-27] | 0.11 | 554 nm | 23 | 73,318 | 577 |  |  |  |  | 
28 | CCOc1ccc(/C=C/C2=[N+]3C(=C(c4ccc(NC(=O)CCl)cc4)c4cccn4[B-]3(F)F)C(C)=C2)cc1OC [BDNCA-63] | 0.07 | 572 nm | 51 | 35,149 | 623 |  |  |  |  | 
29 | CC1=CC(/C=C/c2ccc(N(C)CCC#N)cc2)=[N+]2C1=C(c1ccc(NC(=O)CCl)cc1)c1cccn1[B-]2(F)F [BDNCA-3] | weak | 605 nm |  | 73,593 | weak |  |  |  |  | 
30 | CC1=CC(/C=C/c2ccc(C)c(Cl)c2)=[N+]2C1=C(c1ccc(NC(=O)CCl)cc1)c1cccn1[B-]2(F)F [BDNCA-289] | 0.16 | 560 nm | 26 | 60,686 | 586 |  |  |  |  | 
31 | CC1=CC(/C=C/c2ccc(-c3cccc(Cl)c3)o2)=[N+]2C1=C(c1ccc(NC(=O)CCl)cc1)c1cccn1[B-]2(F)F [BDNCA-284] | 0.04 | 595 nm | 42 | 31,579 | 637 |  |  |  |  | 
32 | COc1cc(Cl)cc(/C=C/C2=[N+]3C(=C(c4ccc(NC(=O)CCl)cc4)c4cccn4[B-]3(F)F)C(C)=C2)c1OC [BDNCA-282] | 0.12 | 557 nm | 20 | 52,723 | 577 |  |  |  |  | 
33 | CC1=CC(/C=C/c2cccc([N+](=O)[O-])c2O)=[N+]2C1=C(c1ccc(NC(=O)CCl)cc1)c1cccn1[B-]2(F)F [BDNCA-315] |  |  |  |  |  | 655 nm |  | 15,652 | weak | weak
34 | COc1cc(/C=C/c2cc(C)c3n2[B-](F)(F)[N+]2=CC=CC2=C3c2ccc(NC(=O)CCl)cc2)ccc1OCCN1CCCC1 [BDNCA-458] |  |  |  |  |  | 569 nm | 39 | 25,538 | 608 | 0.06
35 | C=CCOc1ccc(/C=C/C2=[N+]3C(=C(c4ccc(NC(=O)CCl)cc4)c4cccn4[B-]3(F)F)C(C)=C2)cc1 [BDNCA-48] | 0.07 | 566 nm | 31 | 44,211 | 597 |  |  |  |  | 
36 | CC1=CC(/C=C/c2c(C)cccc2Cl)=[N+]2C1=C(c1ccc(NC(=O)CCl)cc1)c1cccn1[B-]2(F)F [BDNCA-285] | 0.12 | 544 nm | 27 | 44,211 | 571 |  |  |  |  | 
37 | CCc1ccccc1/C=C/c1cc(C)c2n1[B-](F)(F)[N+]1=CC=CC1=C2c1ccc(NC(=O)CCl)cc1 [BDNCA-251] | 0.11 | 555 nm | 23 | 54,096 | 578 |  |  |  |  | 
